Source: ChEMBL document CHEMBL5550106, “Recent advances in the exploration of oxazolidinone scaffolds from compound development to antibacterial agents and other bioactivities” (Eur J Med Chem, 2024)
≈ marks a conversion by molar mass, not a printed value.

Assays:
Haemophilus influenzae [1] = experiment: Antibacterial activity against Haemophilus influenzae assessed as bacterial growth inhibition measured after 16 to 24 hrs by broth microdilution assay; format: functional; conditions: time 16-24 hrs
[2] = tested on: Staphylococcus epidermidis; experiment: Antibacterial activity against Methicillin-resistant Staphylococcus epidermidis assessed as inhibition of bacterial growth; format: functional
Staphylococcus aureus [3] = experiment: Antibacterial activity against Methicillin-resistant Staphylococcus aureus assessed as inhibition of bacterial growth; format: functional
Coagulation factor X = Coagulation factor X (Homo sapiens, UniProt P00742); experiment: Inhibition of human factor Xa
Sequence of Coagulation factor X (P00742 41-179 limits assumed): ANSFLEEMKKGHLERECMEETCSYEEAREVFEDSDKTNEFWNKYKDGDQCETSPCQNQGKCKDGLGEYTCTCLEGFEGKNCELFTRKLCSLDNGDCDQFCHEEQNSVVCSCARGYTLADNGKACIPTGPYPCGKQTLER
Sequence of Coagulation factor X (P00742 235-488 limits assumed): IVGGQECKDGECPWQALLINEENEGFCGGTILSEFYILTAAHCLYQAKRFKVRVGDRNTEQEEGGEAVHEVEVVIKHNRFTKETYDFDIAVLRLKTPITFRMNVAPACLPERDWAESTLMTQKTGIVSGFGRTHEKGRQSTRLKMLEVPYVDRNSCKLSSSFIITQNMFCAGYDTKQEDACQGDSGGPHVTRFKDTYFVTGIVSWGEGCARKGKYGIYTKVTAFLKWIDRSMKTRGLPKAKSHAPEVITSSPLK

[4] = Intrinsic clearance in mouse liver microsomes; format: ADME, Microsome; conditions: read-out: CLH
Staphylococcus aureus [5] = experiment: Antibacterial activity against methicillin-sensitive Staphylococcus aureus assessed as reduction in microbial growth by CLSI based broth microdilution method; format: functional
[6] = tested on: Mycobacterium tuberculosis; experiment: Antibacterial activity against Mycobacterium tuberculosis H37Rv assessed as inhibition of bacterial growth; format: functional
Staphylococcus aureus [7] = experiment: Antibacterial activity against Staphylococcus aureus HG001 assessed as reduction in bacterial cell growth incubated for 16 to 18 hrs by two-fold serial dilution method; format: functional; conditions: time 16-18 hrs
Pseudomonas aeruginosa [8] = experiment: Antibacterial activity against wild-type Pseudomonas aeruginosa PAO1 incubated for 24 hrs by broth microdilution method; format: functional
Pseudomonas aeruginosa [9] = experiment: Antibacterial activity against Pseudomonas aeruginosa PAO1 assessed as bacterial growth inhibition incubated for 24 hrs by microtiter plate reader analysis; format: functional
[10] = tested on: Mycobacterium tuberculosis; experiment: Antitubercular activity against XDR Mycobacterium tuberculosis X24 assessed as bacterial growth inhibition measured for 9 days; format: functional; conditions: X24, 216 h, time 9 day
Staphylococcus aureus [11] = experiment: Antibacterial activity against Methicillin-sensitive Staphylococcus aureus ATCC 9144 assessed as reduction in bacterial growth; format: functional
Enterococcus faecalis [12] = experiment: Antibacterial activity against vancomycin-resistant Enterococcus faecalis NR 31912 assessed as inhibition of bacterial growth; format: functional
Staphylococcus aureus [13] = experiment: Antimicrobial activity against […] Staphylococcus aureus ATCC 25923 assessed as reduction in cell growth by microdilution method; format: functional
[14] = tested on: Staphylococcus epidermidis; experiment: Antibacterial activity against Methicillin-resistant Staphylococcus epidermidis assessed as bacterial growth inhibition; format: functional
Escherichia coli [15] = experiment: Antimicrobial activity against wild type Escherichia coli MG1655 assessed as inhibition of microbial growth; format: functional
Staphylococcus aureus [16] = experiment: Antibacterial activity against Staphylococcus aureus assessed as reduction in bacterial growth incubated for 24 hrs by broth microdilution method; format: functional
Escherichia coli [17] = experiment: Antibacterial activity against efflux pump-efficient Escherichia coli MG1655 assessed as bacterial growth inhibition; format: functional
[18] = tested on: Staphylococcus epidermidis; experiment: Antibacterial activity against Staphylococcus epidermidis assessed as reduction in microbial growth after 24 hrs by CLSI based microdilution method; format: functional
Staphylococcus aureus [19] = experiment: Antibacterial activity against Linezolid-resistant Staphylococcus aureus assessed as reduction in bacterial growth; format: functional
Escherichia coli [20] = experiment: Antibacterial activity against Escherichia coli MG1655 in presence of polymyxin B nonapeptide; format: functional
[21] = tested on: Staphylococcus epidermidis; experiment: Antibacterial activity against linezolid-resistant Staphylococcus epidermidis assessed as reduction in bacterial growth; format: functional
[22] = tested on: Mycobacterium tuberculosis; experiment: Antibacterial activity against Mycobacterium tuberculosis H37Rv assessed as bacterial growth inhibition incubated for 8 days by resazurin assay; format: functional; conditions: 192 h, time 8 day
Haemophilus influenzae [23] = experiment: Antibacterial activity against Haemophilus influenzae assessed as bacterial growth inhibition; format: functional
Staphylococcus aureus [24] = experiment: Antibacterial activity against methicillin-sensitive Staphylococcus aureus assessed as reduction in bacterial growth incubated for 24 hrs by broth microdilution method; format: functional
Enterococcus faecium = experiment: Antibacterial activity against vancomycin-resistant Enterococcus faecium assessed as reduction in microbial growth CLSI-based double dilution method; format: functional
Staphylococcus aureus [25] = experiment: Antibacterial activity against Methicillin-resistant Staphylococcus aureus ATCC 33592 assessed as reduction in bacterial growth; format: functional
[26] = tested on: Mycobacterium tuberculosis; experiment: Antimycobacterial activity against Mycobacterium tuberculosis H37Rv assessed as bacterial growth inhibition incubated for 7 days by fluorescence based analysis; format: functional; conditions: 168 h, time 7 day
Staphylococcus aureus [27] = experiment: Antimicrobial activity against […] Staphylococcus aureus ATCC 25923 assessed as reduction in microbial growth; format: functional
Staphylococcus aureus [28] = experiment: Antimicrobial activity against Methicillin-sensitive Staphylococcus aureus ATCC 29213 assessed as reduction in bacterial growth; format: functional
Enterococcus faecalis [29] = experiment: Antibacterial activity against vancomycin-resistant Enterococcus faecalis incubated for 18 hrs by broth microdilution method; format: functional
[30] = tested on: Mycobacterium tuberculosis; experiment: Antimycobacterial activity against Mycobacterium tuberculosis H37Rv assessed as reduction in bacterial growth measured for 7 days by resazurin dye based assay; format: functional; conditions: 168 h, time 7 day
Staphylococcus aureus [31] = experiment: Antibacterial activity against Methicillin-resistant Staphylococcus aureus assessed as fold reduction in bacterial growth incubated for 14 to 16 hrs by microbroth dilution method; format: functional; conditions: time 14-16 hrs

Question: With `C[S+]([O-])c1ccc(N2CC(CCl)OC2=O)cc1` (configuration not stated) as the compound, how does the MIC (Haemophilus influenzae [1]) read?
Answer: 16 µg/mL (≈ 58.4 µM)

Question: With `CC(=O)NC[C@H]1CN(c2ccc([S+](C)[O-])cc2)C(=O)O1` (some centres not stated) as the compound, how does the MIC [2] read?
Answer: 1 µg/mL (≈ 3.37 µM)

Question: What about the MIC (Staphylococcus aureus [3]) of the same compound?
Answer: 1 µg/mL (≈ 3.37 µM)

Question: With `CS(=O)(=O)c1ccccc1-c1ccc2c(c1)OC[C@H]1[C@H](CNC(=O)c3ccc(Cl)s3)OC(=O)N21` as the compound, how does the IC50 (Coagulation factor X) read?
Answer: 30 nM

Question: With `O=C(NC[C@@H]1OC(=O)N2c3ccc(N4CCOCC4=O)cc3SC[C@@H]12)c1ccc(Cl)s1` as the compound, how does the IC50 (Coagulation factor X) read?
Answer: 2 nM

Question: For `O=C(NC[C@@H]1OC(=O)N2c3ccc(N4CCCCC4=O)cc3SC[C@@H]12)c1ccc(Cl)s1`, which IC50 (Coagulation factor X) is on record?
Answer: 4 nM

Question: Which IC50 (Coagulation factor X) does the source give for `O=C(NC[C@@H]1OC(=O)N2c3ccc(N4CCOCC4=O)cc3[S+]([O-])C[C@@H]12)c1ccc(Cl)s1` (some centres not stated) here?
Answer: 60 nM

Question: With `O=C(NC[C@@H]1OC(=O)N2c3ccc(N4CCOCC4=O)cc3S(=O)(=O)C[C@@H]12)c1ccc(Cl)s1` as the compound, how does the IC50 (Coagulation factor X) read?
Answer: 20 nM

Question: Which IC50 (Coagulation factor X) does the source give for `O=C(NC[C@@H]1OC(=O)N2c3ccc(N4CCOCC4=O)cc3CC[C@@H]12)c1ccc(Cl)s1` here?
Answer: 4 nM

Question: Which IC50 (Coagulation factor X) does the source give for `O=C(NC[C@@H]1OC(=O)N2c3ccc(N4CCCCC4=O)cc3CC[C@@H]12)c1ccc(Cl)s1` here?
Answer: 6 nM

Question: Which IC50 (Coagulation factor X) does the source give for `O=C(NC[C@@H]1OC(=O)N2c3ccc(N4CCOCC4=O)cc3NC[C@@H]12)c1ccc(Cl)s1` here?
Answer: 5 nM

Question: With `CC(=O)NC[C@H]1CN(c2ccc(N3CCC(Nc4ccc(Br)cc4)CC3)c(F)c2)C(=O)O1` as the compound, how does the CLint scaled [4] read?
Answer: 3.46 mL/min/kg

Question: Which MIC (Staphylococcus aureus [5]) does the source give for `C[C@H](NC(=O)[C@H](NC(=O)OCC1c2ccccc2-c2ccccc21)[C@H](C)OC(C)(C)C)[C@H]1CN(c2ccc(N3CCOCC3)c(F)c2)C(=O)O1` here?
Answer: 6.25 µg/mL

Question: With `CC(C)(C)C[C@@H](NC(=O)OCC1c2ccccc2-c2ccccc21)C(=O)N[C@@H](Cc1ccccc1)[C@H]1CN(c2ccc(N3CCOCC3)c(F)c2)C(=O)O1` as the compound, how does the MIC [6] read?
Answer: 1.9 µg/mL (≈ 2.59 µM)

Question: For `CC(=O)NCC1CN(c2ccc(N3CCN(C(=O)CCOCCOCn4cc(CNC(=O)C(CCCCNC(=O)c5cccc(O)c5O)NC(=O)c5cccc(O)c5O)nn4)CC3)c(F)c2)C(=O)O1` (configuration not stated), which MIC (Staphylococcus aureus [7]) is on record?
Answer: > 64 µM

Question: What does the source list for `CC(=O)NCC1CN(c2ccc(N3CCN(C(=O)COn4cc(CNC(=O)C(CNC(=O)C(CNC(=O)CNC(=O)c5cccc(O)c5O)NC(=O)c5cccc(O)c5O)NC(=O)c5cccc(O)c5O)nn4)CC3)c(F)c2)C(=O)O1` (configuration not stated)?
Answer: MIC (Pseudomonas aeruginosa [8]): > 64 µM; MIC (Pseudomonas aeruginosa [9]): 16 µM (≈ 18 µg/mL)

Question: With `CC(=O)NCC1CN(c2ccc(N3CCN(C(=O)COn4cc(CNC(=O)C(CCCCNC(=O)c5cccc(O)c5O)NC(=O)c5cccc(O)c5O)nn4)CC3)c(F)c2)C(=O)O1` (configuration not stated) as the compound, how does the MIC (Staphylococcus aureus [7]) read?
Answer: > 64 µM

Question: Which MIC (Haemophilus influenzae [1]) does the source give for `NS(=O)(=O)c1ccc(N2C[C@H](CO)OC2=O)cc1` here?
Answer: 16 µg/mL (≈ 58.8 µM)

Question: With `CC(C)(C)Oc1ccc(C[C@H](NC(=O)OCC2c3ccccc3-c3ccccc32)C(=O)N[C@@H](Cc2ccccc2)[C@@H]2CN(c3ccc(N4CCOCC4)c(F)c3)C(=O)O2)cc1` as the compound, how does the MIC [6] read?
Answer: 12.5 µg/mL (≈ 15.1 µM)

Question: For `CC(=O)NCC1CN(c2ccc(N3CCN(C(=O)CCOCCOCn4cc(CNC(=O)C(CNC(=O)C(CNC(=O)CNC(=O)c5cccc(O)c5O)NC(=O)c5cccc(O)c5O)NC(=O)c5cccc(O)c5O)nn4)CC3)c(F)c2)C(=O)O1` (configuration not stated), which MIC (Pseudomonas aeruginosa [8]) is on record?
Answer: > 64 µM

Question: What about the MIC (Pseudomonas aeruginosa [9]) of the same compound?
Answer: 64 µM (≈ 76.8 µg/mL)

Question: For `CN1CCN(c2ccc(N3C[C@H](CO)OC3=O)cc2F)C=N1` [DELPAZOLID], which MIC90 [10] is on record?
Answer: 0.5 µg/mL (≈ 1.62 µM)

Question: And the MIC90 (Staphylococcus aureus [11])?
Answer: 1 µg/mL (≈ 3.24 µM)

Question: What about the MIC90 (Enterococcus faecalis [12]) of the same compound?
Answer: 0.5 µg/mL (≈ 1.62 µM)

Question: What about the MIC90 (Staphylococcus aureus [13]) of the same compound?
Answer: 1 µg/mL

Question: For `CC(=O)NC[C@H]1CN(c2ccc(C(C)=O)cc2)C(=O)O1` [DUP-721], which MIC [2] is on record?
Answer: 4 µg/mL (≈ 14.5 µM)

Question: And the MIC (Staphylococcus aureus [3])?
Answer: 4 µg/mL (≈ 14.5 µM)

Question: Which results are given for `CC(=O)NC[C@H]1CN(c2ccc(N3CCOCC3)c(F)c2)C(=O)O1` [LINEZOLID]?
Answer: MIC [14]: 2 µg/mL (≈ 5.93 µM); MIC (Pseudomonas aeruginosa [9]): 4 µM (≈ 1.35 µg/mL); MIC (Escherichia coli [15]): 130 µg/mL; MIC (Staphylococcus aureus [16]): 3.1 µg/mL (≈ 9.19 µM); MIC (Escherichia coli [17]): 11 µg/mL (≈ 32.6 µM); MIC [18]: 2 µg/mL; MIC (Staphylococcus aureus [19]): > 32 µg/mL; MIC [6]: 1.56 µg/mL (≈ 4.62 µM); MIC (Escherichia coli [20]): 36 µg/mL; MIC [21]: > 32 µg/mL

Question: Which MIC90 [22] does the source give for `O=C([C@@H](O)CO)N1CC=C(c2c(F)cc(N3C[C@H](COc4ccon4)OC3=O)cc2F)CC1` [POSIZOLID] here?
Answer: 1 µg/mL (≈ 2.15 µM)

Question: With `CC(=O)NC[C@H]1CN(c2ccc(-c3ccc(CNCc4cnn[nH]4)cc3)c(F)c2)C(=O)O1` [RADEZOLID] as the compound, how does the MIC90 (Haemophilus influenzae [23]) read?
Answer: 0.5 µg/mL (≈ 1.14 µM)

Question: And the MIC90 (Staphylococcus aureus [24])?
Answer: 0.5 µg/mL (≈ 1.14 µM)

Question: And the MIC90 (Enterococcus faecium)?
Answer: 0.5 µg/mL

Question: And the MIC90 (Staphylococcus aureus [25])?
Answer: 0.5 µg/mL (≈ 1.14 µM)

Question: With `CC(=O)NC[C@H]1CN(c2ccc(N3CCSCC3)c(F)c2)C(=O)O1` [SUTEZOLID] as the compound, how does the MIC [26] read?
Answer: 0.03 µg/mL (≈ 0.0849 µM)

Question: Which results are given for `Cn1nnc(-c2ccc(-c3ccc(N4C[C@H](COP(=O)(O)O)OC4=O)cc3F)cn2)n1` [TEDIZOLID PHOSPHATE]?
Answer: MIC90 (Staphylococcus aureus [27]): 0.12 µg/mL; MIC90 (Staphylococcus aureus [28]): 0.12 µg/mL; MIC90 (Enterococcus faecalis [29]): 0.12 µg/mL; MIC90 [30]: 0.125 µg/mL

Question: For `Cn1nnc(-c2ccc(-c3ccc(N4C[C@H](CO)OC4=O)cc3F)cn2)n1` [TEDIZOLID], which MIC90 (Staphylococcus aureus [27]) is on record?
Answer: 0.25 µg/mL

Question: What about the MIC90 (Staphylococcus aureus [28]) of the same compound?
Answer: 0.25 µg/mL (≈ 0.675 µM)

Question: And the “fold change (FC)” value (Staphylococcus aureus [31])?
Answer: 4

Question: What about the MIC90 (Enterococcus faecalis [29]) of the same compound?
Answer: 0.5 µg/mL (≈ 1.35 µM)
